± gives the expanded uncertainty stated by the source.
Conditions: 1000 kPa, Liquid, Coaxial cylinder method

Row | Compound | thermal conductivity (302.75 K) [W/m/K] | thermal conductivity (332.54 K) [W/m/K] | thermal conductivity (362.39 K) [W/m/K] | thermal conductivity (392.16 K) [W/m/K]
1 | COCCOC [1,2-dimethoxyethane] | 0.1605 ± 0.0071 | 0.1452 ± 0.0064 | 0.1317 ± 0.0059 | 0.1183 ± 0.0053
2 | COCCOCCOCCOCCOC [2,5,8,11,14-pentaoxapentadecane] | 0.1469 ± 0.0065 | 0.1407 ± 0.0063 | 0.1345 ± 0.006 | 0.1274 ± 0.0057
3 | COCCOCCOCCOC [2,5,8,11-tetraoxadodecane] | 0.1433 ± 0.0064 | 0.137 ± 0.0061 | 0.1303 ± 0.0058 | 0.1227 ± 0.0055
4 | COCCOCCOC [2,5,8-trioxanonane] | 0.1461 ± 0.0065 | 0.1324 ± 0.0059 | 0.1205 ± 0.0054 | 0.1076 ± 0.0048
5 | COCC(C)OCC(C)OC (centres undefined) [2-methoxy-1-(2-methoxy-1-methylethoxy)propane] | 0.1242 ± 0.0056 | 0.1169 ± 0.0052 | 0.1085 ± 0.0049 | 0.099 ± 0.0045
6 | c1ccccc1 [benzene] | 0.1409 ± 0.0037 | 0.1304 ± 0.0035 | 0.1194 ± 0.0032 | 0.1098 ± 0.003

— the NIST ThermoML archive (doi:10.1021/je900641w)
